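Test compounds were applied to cells in 96-well plates for 48 hours at 5 doses. At the TGI there is no net growth.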
How the values were obtained:
Assay in all cases: NCI anticancer screen, dose series, 48 h
[1] = system: BT-549 breast
[2] = system: CCRF-CEM leukemia
[3] = system: EKVX NSCLC
[4] = system: HCT-116 colon
[5] = system: HCT-15 colon
[6] = system: HL-60(TB) leukemia
[7] = system: KM12 colon
[8] = system: M14 melanoma
[9] = system: MCF7 breast
[10] = system: MDA-MB-231 breast
[11] = system: MDA-MB-435
[12] = system: MDA-N
[13] = system: MOLT-4 leukemia
[14] = system: NCI-H460 lung
[15] = system: NCI/ADR-RES ovarian
[16] = system: OVCAR-8 ovarian
[17] = system: RPMI-8226 leukemia
[18] = system: SF-268 CNS
[19] = system: SW-620 colon

Measured: TGI

NC(Cc1ccccc1CP(=O)(O)O)C(=O)O (centres undefined)
> 100 µM: [1] | [2] | [3] | [4] | [5] | [6] | [7] | [8] | [9] | [10] | [11] | [12] | [13] | [14] | [15] | [16] | [17] | [18] | [19]

Reference: PubChem BioAssay (NCI)
